Measured values taken from patent US20260151379A1, “SALT TYPE AND CRYSTAL FORM OF COMPLEMENT FACTOR B INHIBITOR, AND PREPARATION METHOD THEREFOR AND APPLICATION THEREOF” (SHANGHAI MEIYUE BIOTECH DEVELOPMENT CO., LTD., priority 2022, published 2026).
Where two headings read alike, the source gives them in different places.

Test: Solubility tests in water, SGF, FaSSIF, FeSSIF at 37° C. (Example 5)
Format: physicochemical
Conditions: for solubility at 1 h / solubility at 24 h: 37 °C, thermodynamic from solid; for solubility at 1 h: read-out: Solubility (mg/mL) (1 h); for solubility at 24 h: read-out: Solubility (mg/mL) (24 h)
Protocol: Experimental procedures: 30 mg (in water) or 15 mg of a sample was weighed out and added to a 4 mL vial; 3 mL of a medium to be tested (water, SGF, FaSSIF, or FeSSIF) was added; the mixture was continuously stirred at 37° C.; 0.5 mL of the sample was separately collected at 1 h and 24 h; centrifugation was performed at 12000 rpm for 10 min; the supernatant was diluted with 50% aqueous acetonitrile solution to an appropriate multiple; and the concentration of the supernatant was determined.
Control and linearity: 10 mg of the compound of formula I was weighed out and added to a 50 mL volumetric flask, 50% aqueous acetonitrile solution was added for dissolution, and the mixture was diluted to volume. Two parts were prepared in parallel. The control of the compound of formula I was taken and diluted with 50% aqueous acetonitrile solution to 100 μg/mL, 50 μg/mL, and 10 μg/mL, 5 μL of the sample was injected, and a standard curve was plotted.

[1] = SGF, simulated gastric fluid, SGF

Compound: COc1cc(C)c2[nH]ccc2c1CN1CC[C@H](OCC2CC2)C[C@H]1c1ccc(C(=O)O)cc1 [Compound of formula I]
- Final pH (FaSSIF): 6.44
- Solubility (mg/mL) (1 h) (FaSSIF): 0.22 mg/mL
- Solubility (mg/mL) (24 h) (FaSSIF): 0.19 mg/mL
- solubility at 1 h (FeSSIF, fessif, FeSSIF): 0.37 mg/mL
- solubility at 24 h (FeSSIF, fessif, FeSSIF): 0.35 mg/mL
- Final pH (FessIF): 5.03
- Final pH (SGF): 1.74
- solubility at 1 h [1]: 5.51 mg/mL
- solubility at 24 h [1]: 5.48 mg/mL
- Final pH (Water): 8.73
- Solubility (mg/mL) (1 h) (Water): 0.37 mg/mL
- Solubility (mg/mL) (24 h) (Water): 0.31 mg/mL
